Laboratory results: patent US7288760B2, “Conformational real-time atmospheric and environmental characterization sampling apparatus and method” (Battelle Memorial Institute, priority 2005, dated 2007)

Assay type: in vivo
Details: dermal delivery via glass cup bulb, approximately 0.0007 g toluene, ~253 g rat, 10-L glass sampling chamber, quadrupole MS m/z=92, throughput 195 mL/min
Procedure: FIG. 5a illustrates a system 200 for real-time monitoring and/or analysis of analytes released to a sampling environment 30 in conjunction with animal exposure studies, according to another embodiment of the invention. In Example 4 below, a live animal (e.g., rat) 32 placed in a sampling environment 30 is dosed or treated with a chemical or a drug delivered, e.g., via a dermal cup bulb 34 in conjunction with a precision syringe 36 or other delivery means, including but not limited to, dermal patch, injection, or the like. Environment 30 is monitored in real-time via coupling with manifold 20 at the breathing (clearance) rate of the animal until desired target analytes, metabolites, and/or chemical indicators of interest are detected or quantified in the mass-selective detector or instrument comprising system 10. […]
A custom made ˜3-cc glass cup bulb 34 including a septum (not shown) made of silicon sealant (Dow Corning, Baltimore, Md.) was affixed to the dermis of an anesthetized ˜253 g rat 32 using a veterinary bonding compound (e.g., vet bond®, 3M, St. Paul, Minn.) and allowed to affix for ˜12 to 14 hours. […] Alternatively, breathing rate can be determined using a breathing plethysmograph (e.g., a double chamber plethysmograph, Buxco Electronics, Inc., Wilmington, N.C.). […]

Cc1ccccc1 [toluene]
Time from exposure to detection of the toluene analyte from the respired breath of animal: about 30 minutes
